This passage reports flash point results from a flash point compilation (Sun et al. 2020).

Assay in data set [1]: not given
The source holds these as a separate data set.

Assay in data set [2]: not given
The source holds these as a separate data set.

Assay in data set [3]: not given
The source holds these as a separate data set.

Assay in data set [4]: not given
The source holds these as a separate data set.

Where “and” joins values, the source holds several entries; their conditions need not be identical. Equal values may be shown once.

Turning to `COCCOCCOCCOC` [1,2-bis(2-methoxyethoxy)ethane], the flash point stood at 113.00 °C.

On to `COc1ccccc1OC` [1,2-dimethoxybenzene], for which the flash point worked out at 72.00 °C.

The compound `C1COCCO1` [1,4-dioxane] gave a flash point of 18.33 °C. The compound further showed a flash point in data set [1] of 12.00 °C.

The compound `CC(=O)c1ccccn1` [1-(2-pyridyl)ethanone] returned a flash point of 76.00 °C.

As to `CCCCOCCOCCOCCCC` [1-[2-(2-butoxyethoxy)ethoxy]butane], the flash point amounted to 101.00 °C. In data set [1], this compound came in with a flash point of 118.00 °C.

`CC(Cl)OC(C)Cl` (stereo not given) [1-chloro-1-(1-chloroethoxy)ethane] registered a flash point of 55.00 °C.

Regarding `ClCCOCCCl` [1-chloro-2-(2-chloroethoxy)ethane], the flash point is 55.00 °C.

With `COCCCl` [1-chloro-2-methoxyethane], the flash point stood at 15.00 °C.

In the case of `Clc1ccc(Oc2ccccc2)cc1` [1-chloro-4-(phenoxy)benzene], the flash point stood at 113.00 °C.

`CC(O)CCl` (stereo not given) [1-chloropropan-2-ol] yielded a flash point of 51.00 °C.

`CC(C)CCOCCC(C)C` [1-isopentyloxy-3-methylbutane] had a flash point of 46.00 °C.

`COCC(C)O` (stereo not given) [1-methoxypropan-2-ol] yielded a flash point of 33.00 °C.

`OCC(CO)(CO)CO` [2,2-bis(hydroxymethyl)propane-1,3-diol] gave a flash point of 240.00 °C.

In the case of `CCC(CC)(CO)CO` [2,2-diethylpropane-1,3-diol], the flash point is 107.00 °C.

As for `CC(C)C(C)C(C)CO` (stereo not given) [2,3,4-trimethylpentan-1-ol], the flash point amounted to 60.00 °C.

`CC(C)(C)c1cccc(C(C)(C)C)n1` [2,6-ditert-butylpyridine]: the flash point was found to be 72.00 °C.

With `OCCOCCO` [2-(2-hydroxyethoxy)ethanol], the flash point was 138.33 °C and 143.00 °C.

In the case of `CCCCOCC1CO1` (stereo not given) [2-(butoxymethyl)oxirane], the flash point was found to be 41.00 °C. In data set [1], this compound had a flash point of 54.00 °C.

For the compound `CC(CO)(CO)CO` [2-(hydroxymethyl)-2-methylpropane-1,3-diol], the flash point is 160.00 °C.

Turning to `c1ccc(OCC2CO2)cc1` (stereo not given) [2-(phenoxymethyl)oxirane], the flash point amounted to 115.00 °C.

`OCCOCCOCCO` [2-[2-(2-hydroxyethoxy)ethoxy]ethanol] displayed a flash point of 162.78 °C.

As to `CCCCC(CC)(CO)CO` [2-butyl-2-ethylpropane-1,3-diol], the flash point worked out at 113.00 °C.

On to `Nc1ccccc1Cl` [2-chloroaniline], for which the flash point turned out to be 98.00 °C.

For the compound `Clc1ccccn1` [2-chloropyridine], the flash point was 64.00 °C. The flash point in data set [2] was found to be 66 °C.

`CCN(CC)CCO` [2-diethylaminoethanol]: the flash point was 51.50 °C.

In the case of `CCC(CC)CO` [2-ethylbutan-1-ol], the flash point stood at 58.33 °C. The flash point in data set [1] is 53.00 °C.

Consider `OCc1ccco1` [2-furylmethanol], for which the flash point worked out at 83.33 °C.

The compound `CCC(C)(C)O` [2-methylbutan-2-ol] returned a flash point of 20.00 °C. This compound also yielded a flash point in data set [1] of 19.00 °C.

`CC(C)(C)CCO` [3,3-dimethylbutan-1-ol] registered a flash point of 29.00 °C.

The compound `Nc1cccc(Cl)c1` [3-chloroaniline] registered a flash point of 118.00 °C.

`CCCCC(C)(O)CC` (stereo not given) [3-methylheptan-3-ol] yielded a flash point of 54.00 °C.

`C=CC1CC=CCC1` (stereo not given) [4-vinylcyclohexene] returned a flash point of 21.00 °C.

The compound `CCC(C)CC(O)CC` (stereo not given) [5-methylheptan-3-ol] gave a flash point of 54.00 °C.

For `C/C=C\C` [(z)-but-2-ene], the flash point was -73.00 °C.

`CN(C)C=O` [N,N-dimethylformamide] displayed a flash point of 57.00 °C. This compound also displayed a flash point in data set [1] of 67.00 °C.

Regarding `CCNCC` [N-ethylethanamine], the flash point was -28.00 °C. The same compound displayed a flash point in data set [1] of -29.00 °C.

Turning to `CCCCCCCC[Si](OCC)(OCC)OCC` [Octyltriethoxysilane], the flash point in data set [3] was found to be 100.00 °C.

In data set [3], `CO[Si](OC)(OC)c1ccccc1` [Phenyltrimethoxysilane] displayed a flash point of 85.00 °C.

`CCO[Si](OCC)(OCC)OCC` [Tetraethoxysilane] came in with a flash point in data set [3] of 50.00 °C.

Take `O=C=N[Si](N=C=O)(N=C=O)N=C=O` [Tetraisocyanatosilane]: the flash point in data set [3] was 50.00 °C.

Regarding `C[SiH](C)O[Si](O[SiH](C)C)(O[SiH](C)C)O[SiH](C)C` [Tetrakisdimethylsiloxysilane], in data set [3], the flash point was found to be 67.00 °C.

In turn, `C=C[Si](C=C)(C=C)C=C` [Tetravinylsilane] gave a flash point in data set [3] of 18.00 °C.

The compound `CCC[Si](Cl)(CCC)CCC` [Tri-n-propylchlorosilane] registered a flash point in data set [3] of 76.00 °C.

For the compound `CCC[SiH](CCC)CCC` [Tri-n-propylsilane], the flash point in data set [3] is 43.00 °C.

As to `N#CCCC[Si](Cl)(Cl)Cl` [Trichloro(3-cyanopropyl) Silane], the flash point in data set [3] came to 92.00 °C.

With `Clc1ccc([Si](Cl)(Cl)Cl)cc1` [Trichloro(p-chlorophenyl)silane], the flash point in data set [3] amounted to 123.90 °C.

In data set [3], `CC[Si](Cl)(CC)CC` [Triethylchlorosilane] gave a flash point of 30.00 °C.

Regarding `CC[SiH](CC)CC` [Triethylsilane], the flash point in data set [3] is -3.00 °C.

In data set [3], `C=CO[Si](C)(C)C` [Trimethyl(vinyloxy)silane] came in with a flash point of -10.00 °C.

Regarding `C=C(C)O[Si](C)(C)C` [Trimethyl[(1-methylethenyl)oxy]silane], the flash point in data set [3] is -1.00 °C.

In the case of `C[Si](C)(C)Cl` [Trimethylchlorosilane], the flash point in data set [3] was -18.00 °C.

Regarding `C[Si](C)(C)c1ccccc1` [Trimethylphenylsilane], the flash point in data set [3] was found to be 40.00 °C.

Consider `C[Si](C)(C)OC(=O)C(F)(F)F` [Trimethylsilyltrifluoroacetate], for which the flash point in data set [3] stood at 0.00 °C.

On to `c1ccc([SiH](c2ccccc2)c2ccccc2)cc1` [Triphenylsilane], for which the flash point in data set [3] was found to be 143.20 °C.

With `C[Si](C)(C)[SiH]([Si](C)(C)C)[Si](C)(C)C` [Tris(trimethylsilyl)silane], the flash point in data set [3] was 55.00 °C.

As to `[SiH3][SiH2][SiH3]` [Trisilane], the flash point in data set [3] stood at 0.00 °C.

For the compound `C=C[Si](C)(C)OCC` [Vinyldimethylethoxysilane], the flash point in data set [3] is 4.00 °C.

Consider `C=C[Si](Cl)(Cl)Cl` [Vinyltrichlorosilane], for which the flash point in data set [3] amounted to 21.00 °C.

In data set [3], `C=C[Si](OC)(OC)OC` [Vinyltrimethoxysilane] gave a flash point of 23.00 °C.

In the case of `OCc1ccc(CO)cc1` [[4-(hydroxymethyl)phenyl]methanol], the flash point worked out at 187.80 °C.

Compound `C=CCOc1ccccc1` [allyloxybenzene] showed a flash point of 62.00 °C.

`CCC(C)O` (stereo not given) [butan-2-ol] came in with a flash point of 22.22 °C. In data set [1], this compound returned a flash point of 24.00 °C.

`CC(O)CCO` (stereo not given) [butane-1,3-diol] yielded a flash point of 108.89 °C.

Regarding `OCCCCO` [butane-1,4-diol], the flash point came out at 121.11 °C.

Consider `C1=CCCCC1` [cyclohexene], for which the flash point is -30.00 °C. Moreover, the flash point in data set [2] was -12 °C. Further, the flash point in data set [4] was -17 °C.

Compound `CCCCCCCCCCO` [decan-1-ol] came in with a flash point of 104.44 °C. Besides, in data set [1], the flash point is 82.00 °C.

`C=COCC` [ethoxyethylene] showed a flash point of -46.00 °C.

As for `CCCCCC(C)N` (stereo not given) [heptan-2-amine], the flash point turned out to be 54.00 °C.

`CCCCCCO` [hexan-1-ol] showed a flash point of 73.89 °C. The same compound registered a flash point in data set [1] of 63.00 °C.

The compound `CCCC[Si](C)(Cl)Cl` [n-Butylmethyldichlorosilane] returned a flash point in data set [3] of 30.00 °C.

`CCCCCCCCCCCC[Si](C)(Cl)Cl` [n-Dodecylmethyldichlorosilane] had a flash point in data set [3] of 143.00 °C.

As for `CCCCCCC[Si](C)(Cl)Cl` [n-Heptylmethyldichlorosilane], the flash point in data set [3] came out at 66.00 °C.

As for `CCCCCCC[Si](Cl)(Cl)Cl` [n-Heptyltrichlorosilane], the flash point in data set [3] came to 64.00 °C.

In the case of `CCCCCC[Si](C)(Cl)Cl` [n-Hexylmethyldichlorosilane], in data set [3], the flash point is 85.00 °C.

In the case of `CCCCCC[Si](Cl)(Cl)Cl` [n-Hexyltrichlorosilane], the flash point in data set [3] was found to be 85.00 °C.

`CCCCCCCCCCCCCCCCCC[Si](Cl)(Cl)Cl` [n-Octadecyltrichlorosilane] yielded a flash point in data set [3] of 193.00 °C.

For `CCCCCCCC[SiH3]` [n-Octylsilane], in data set [3], the flash point was 36.00 °C.

In turn, `CCC[Si](Cl)(Cl)Cl` [n-Propyltrichlorosilane] registered a flash point in data set [3] of 37.00 °C.

`C=CC(O)CCCCC` (stereo not given) [oct-1-en-3-ol] yielded a flash point of 68.00 °C.

As for `CCCCCCCCO` [octan-1-ol], the flash point came out at 90.56 °C. This compound registered a flash point in data set [1] of 81.00 °C.

`CCCCCCC(C)O` (stereo not given) [octan-2-ol]: the flash point was found to be 85.00 °C. In addition, in data set [1], the flash point was found to be 76.00 °C.

Regarding `CCCC(C)O` (stereo not given) [pentan-2-ol], the flash point worked out at 40.56 °C. Moreover, the flash point in data set [1] was determined as 35.00 °C.

As to `OCCCCCO` [pentane-1,5-diol], the flash point was determined as 129.44 °C.

Compound `OCCCO` [propane-1,3-diol] had a flash point of 79.00 °C.

Consider `C[SiH](C)C(C)(C)C` [t-Butyld imethyl silane], for which the flash point in data set [3] was -22.00 °C.

`CCCCCCCCCCCCCCO` [tetradecan-1-ol] showed a flash point of 145.00 °C. This compound also came in with a flash point in data set [1] of 141.00 °C.

Compound `CCCCCCCCCCCCCO` [tridecan-1-ol] came in with a flash point of 116.00 °C. In data set [1], the flash point was 121.00 °C.
